In patent US9687479B2, “Multisubstituted aromatic compounds as serine protease inhibitors” (VERSEON CORPORATION, priority 2013, dated 2017):
pIC50: −log10 of the molar value.

Tests used:
Human KLKB1 = Human KLKB1 (Homo sapiens (Human), UniProt P03952); experiment: KLKB1 kallikrein activity inhibition assay (chromogenic substrate S-2302); assay type: biochemical; settings: Table B
Outline: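 Enzyme at a final 3 nM was assayed in 0.05 M Tris pH 7.4, 0.01 M NaCl and 0.2% PEG-8000 at room temperature, with compounds as ten-point threefold dilutions.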

Human thrombin = Human thrombin (Homo sapiens (Human), UniProt P00734); experiment: Thrombin protease activity inhibition assay (chromogenic substrate S-2238); assay type: biochemical; settings: 3 nM thrombin, 125 μM S-2238, 10 min pre-incubation, RT
Outline: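 Ten-point, three-fold serial dilutions of compound tested against 3 nM enzyme at RT in Tris buffer (0.05 M, pH 7.4) with 0.015 M NaCl and 0.01% PEG-8000.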

Sequence of Human KLKB1 (P03952 391-638 limits assumed): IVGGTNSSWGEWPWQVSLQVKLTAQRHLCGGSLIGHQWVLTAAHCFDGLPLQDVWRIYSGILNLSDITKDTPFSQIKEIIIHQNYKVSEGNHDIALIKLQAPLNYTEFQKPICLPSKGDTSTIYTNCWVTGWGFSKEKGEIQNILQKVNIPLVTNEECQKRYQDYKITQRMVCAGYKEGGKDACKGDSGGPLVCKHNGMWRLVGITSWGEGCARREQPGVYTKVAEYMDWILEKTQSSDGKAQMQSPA
Sequence of Human KLKB1 (P03952 20-390 partner limits assumed): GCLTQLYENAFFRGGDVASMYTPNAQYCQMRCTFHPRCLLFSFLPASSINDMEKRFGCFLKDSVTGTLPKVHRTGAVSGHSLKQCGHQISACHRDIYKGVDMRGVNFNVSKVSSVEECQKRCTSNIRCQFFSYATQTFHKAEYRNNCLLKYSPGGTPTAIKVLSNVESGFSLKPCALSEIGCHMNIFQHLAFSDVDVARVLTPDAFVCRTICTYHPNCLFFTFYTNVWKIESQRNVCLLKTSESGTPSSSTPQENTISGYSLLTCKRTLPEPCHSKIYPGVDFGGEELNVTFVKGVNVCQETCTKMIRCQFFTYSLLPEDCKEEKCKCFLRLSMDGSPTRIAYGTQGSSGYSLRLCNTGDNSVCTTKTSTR

Compound	pIC50 (Human KLKB1)	pIC50 (Human thrombin)
COCC(C)(C)C(=O)n1nc(-c2cccn(Cc3cccnc3)c2=O)cc1NCc1ccc(Cl)s1 [Cmpd 102, 3-(5-[(5-chlorothiophen-2-yl)methyl]amino-1-(3-methoxy-2,2-dimethylpropanoyl)-1H-pyrazol-3-yl)-1-(pyridin-3-ylmethyl)-1,2-dihydropyridin-2-one]	4.00 to 5.00	> 7.00
COCC(C)(C)C(=O)n1nc(-c2cccn(Cc3ccncc3)c2=O)cc1NCc1ccc(Cl)s1 [Cmpd 103, 3-(5-[(5-chlorothiophen-2-yl)methyl]amino-1-(3-methoxy-2,2-dimethylpropanoyl)-1H-pyrazol-3-yl)-1-(pyridin-4-ylmethyl)-1,2-dihydropyridin-2-one]	4.00 to 5.00	> 7.00
COCC(C)(C)C(=O)n1nc(-c2cccn(Cc3ncccn3)c2=O)cc1NCc1ccc(Cl)s1 [Cmpd 104, 3-(5-[(5-chlorothiophen-2-yl)methyl]amino-1-(3-methoxy-2,2-dimethylpropanoyl)-1H-pyrazol-3-yl)-1-(pyrimidin-2-ylmethyl)-1,2-dihydropyridin-2-one]	5.00 to 6.00	> 7.00
COCC(C)(C)C(=O)n1nc(-c2cccn(Cc3cccs3)c2=O)cc1NCc1ccc(Cl)s1 [Cmpd 105, 3-(5-[(5-chlorothiophen-2-yl)methyl]amino-1-(3-methoxy-2,2-dimethylpropanoyl)-1H-pyrazol-3-yl)-1-(thiophen-2-ylmethyl)-1,2-dihydropyridin-2-one]	< 4.00	> 7.00
COCC(C)(C)C(=O)n1nc(-c2cccn(Cc3ccsc3)c2=O)cc1NCc1ccc(Cl)s1 [Cmpd 106, 3-(5-[(5-chlorothiophen-2-yl)methyl]amino-1-(3-methoxy-2,2-dimethylpropanoyl)-1H-pyrazol-3-yl)-1-(thiophen-3-ylmethyl)-1,2-dihydropyridin-2-one]	< 4.00	> 7.00
COCCn1cccc(-c2cc(NCc3ccc(Cl)s3)n(C(=O)c3cccc4c3OCCO4)n2)c1=O [Cmpd 109, 3-(5-[(5-chlorothiophen-2-yl)methyl]amino-1-[(2,3-dihydro-1,4-benzodioxin-5-yl)carbonyl]-1H-pyrazol-3-yl)-1-(2-methoxyethyl)-1,2-dihydropyridin-2-one]	5.00 to 6.00	> 7.00
O=C(c1cccc2c1OCCO2)n1nc(-c2cccn(Cc3ncccn3)c2=O)cc1NCc1ccc(Cl)s1 [Cmpd 116, 3-(5-[(5-chlorothiophen-2-yl)methyl]amino-1-[(2,3-dihydro-1,4-benzodioxin-5-yl)carbonyl]-1H-pyrazol-3-yl)-1-(pyrimidin-2-ylmethyl)-1,2-dihydropyridin-2-one]	5.00 to 6.00	> 7.00
O=C(c1cccc2c1OCCO2)n1nc(-c2cccn(Cc3cccs3)c2=O)cc1NCc1ccc(Cl)s1 [Cmpd 117, 3-(5-[(5-chlorothiophen-2-yl)methyl]amino-1-[(2,3-dihydro-1,4-benzodioxin-5-yl)carbonyl]-1H-pyrazol-3-yl)-1-(thiophen-2-ylmethyl)-1,2-dihydropyridin-2-one]	< 4.00	> 7.00
COCCn1cccc(-c2cc(NCc3ccc(Cl)s3)n(C(=O)c3ccc(OC)cc3OC)n2)c1=O [Cmpd 122, 3-(5-[(5-chlorothiophen-2-yl)methyl]amino-1-[(2,4-dimethoxyphenyl)carbonyl]-1H-pyrazol-3-yl)-1-(2-methoxyethyl)-1,2-dihydropyridin-2-one]	5.00 to 6.00	> 7.00
COc1ccc(C(=O)n2nc(-c3cccn(Cc4ccoc4)c3=O)cc2NCc2ccc(Cl)s2)c(OC)c1 [Cmpd 123, 3-(5-[(5-chlorothiophen-2-yl)methyl]amino-1-[(2,4-dimethoxyphenyl)carbonyl]-1H-pyrazol-3-yl)-1-(furan-3-ylmethyl)-1,2-dihydropyridin-2-one]	4.00 to 5.00	> 7.00
COc1ccc(C(=O)n2nc(-c3cccn(Cc4ccccn4)c3=O)cc2NCc2ccc(Cl)s2)c(OC)c1 [Cmpd 125, 3-(5-[(5-chlorothiophen-2-yl)methyl]amino-1-[(2,4-dimethoxyphenyl)carbonyl]-1H-pyrazol-3-yl)-1-(pyridin-2-ylmethyl)-1,2-dihydropyridin-2-one]	5.00 to 6.00	> 7.00
COc1ccc(C(=O)n2nc(-c3cccn(CCN4CCOCC4)c3=O)cc2NCc2ccc(Cl)s2)c(OC)c1 [Cmpd 131, 3-(5-[(5-chlorothiophen-2-yl)methyl]amino-1-[(2,4-dimethoxyphenyl)carbonyl]-1H-pyrazol-3-yl)-1-[2-(morpholin-4-yl)ethyl]-1,2-dihydropyridin-2-one]	6.00 to 7.00	> 7.00
COc1ccccc1C(=O)n1nc(-c2cccn(Cc3cccnc3)c2=O)cc1NCc1ccc(Cl)s1 [Cmpd 140, 3-(5-[(5-chlorothiophen-2-yl)methyl]amino-1-[(2-methoxyphenyl)carbonyl]-1H-pyrazol-3-yl)-1-(pyridin-3-ylmethyl)-1,2-dihydropyridin-2-one]	6.00 to 7.00	> 7.00
CC1(C(=O)n2nc(-c3cccn(Cc4cccs4)c3=O)cc2NCc2ccc(Cl)s2)CCOCC1 [Cmpd 157, 3-(5-[(5-chlorothiophen-2-yl)methyl]amino-1-[(4-methyloxan-4-yl)carbonyl]-1H-pyrazol-3-yl)-1-(thiophen-2-ylmethyl)-1,2-dihydropyridin-2-one]	< 4.00	> 7.00
COCCn1cccc(-c2cc(NCc3ccc(Cl)s3)n(C(=O)c3ccco3)n2)c1=O [Cmpd 160, 3-(5-[(5-chlorothiophen-2-yl)methyl]amino-1-[(furan-2-yl)carbonyl]-1H-pyrazol-3-yl)-1-(2-methoxyethyl)-1,2-dihydropyridin-2-one]	6.00 to 7.00	< 4.00
O=C(c1ccoc1)n1nc(-c2cccn(Cc3ccsc3)c2=O)cc1NCc1ccc(Cl)s1 [Cmpd 179, 3-(5-[(5-chlorothiophen-2-yl)methyl]amino-1-[(furan-3-yl)carbonyl]-1H-pyrazol-3-yl)-1-(thiophen-3-ylmethyl)-1,2-dihydropyridin-2-one]	4.00 to 5.00	> 7.00
COCCn1cccc(-c2cc(NCc3ccc(Cl)s3)n(C(=O)c3cccs3)n2)c1=O [Cmpd 182, 3-(5-[(5-chlorothiophen-2-yl)methyl]amino-1-[(thiophen-2-yl)carbonyl]-1H-pyrazol-3-yl)-1-(2-methoxyethyl)-1,2-dihydropyridin-2-one]	5.00 to 6.00	> 7.00
O=C(c1cccs1)n1nc(-c2cccn(Cc3ccoc3)c2=O)cc1NCc1ccc(Cl)s1 [Cmpd 184, 3-(5-[(5-chlorothiophen-2-yl)methyl]amino-1-[(thiophen-2-yl)carbonyl]-1H-pyrazol-3-yl)-1-(furan-3-ylmethyl)-1,2-dihydropyridin-2-one]	4.00 to 5.00	> 7.00
COCCn1cccc(-c2cc(NCc3ccc(Cl)s3)n(C(=O)c3ccsc3)n2)c1=O [Cmpd 194, 3-(5-[(5-chlorothiophen-2-yl)methyl]amino-1-[(thiophen-3-yl)carbonyl]-1H-pyrazol-3-yl)-1-(2-methoxyethyl)-1,2-dihydropyridin-2-one]	6.00 to 7.00	> 7.00
O=C(c1ccsc1)n1nc(-c2cccn(Cc3ccoc3)c2=O)cc1NCc1ccc(Cl)s1 [Cmpd 196, 3-(5-[(5-chlorothiophen-2-yl)methyl]amino-1-[(thiophen-3-yl)carbonyl]-1H-pyrazol-3-yl)-1-(furan-3-ylmethyl)-1,2-dihydropyridin-2-one]	6.00 to 7.00	> 7.00
O=C(c1ccsc1)n1nc(-c2cccn(Cc3ccccn3)c2=O)cc1NCc1ccc(Cl)s1 [Cmpd 198, 3-(5-[(5-chlorothiophen-2-yl)methyl]amino-1-[(thiophen-3-yl)carbonyl]-1H-pyrazol-3-yl)-1-(pyridin-2-ylmethyl)-1,2-dihydropyridin-2-one]	6.00 to 7.00	> 7.00
O=C(c1ccsc1)n1nc(-c2cccn(Cc3ncccn3)c2=O)cc1NCc1ccc(Cl)s1 [Cmpd 201, 3-(5-[(5-chlorothiophen-2-yl)methyl]amino-1-[(thiophen-3-yl)carbonyl]-1H-pyrazol-3-yl)-1-(pyrimidin-2-ylmethyl)-1,2-dihydropyridin-2-one]	6.00 to 7.00	> 7.00
O=C(c1ccsc1)n1nc(-c2cccn(Cc3ccsc3)c2=O)cc1NCc1ccc(Cl)s1 [Cmpd 203, 3-(5-[(5-chlorothiophen-2-yl)methyl]amino-1-[(thiophen-3-yl)carbonyl]-1H-pyrazol-3-yl)-1-(thiophen-3-ylmethyl)-1,2-dihydropyridin-2-one]	6.00 to 7.00	> 7.00
COCCn1cccc(-c2cc(NCc3ccc(Cl)s3)n(C(=O)c3ccc(N4CCOCC4)cc3)n2)c1=O [Cmpd 208, 3-(5-[(5-chlorothiophen-2-yl)methyl]amino-1-[4-(morpholin-4-yl)phenyl]carbonyl-1H-pyrazol-3-yl)-1-(2-methoxyethyl)-1,2-dihydropyridin-2-one]	5.00 to 6.00	> 7.00
O=C(c1ccc(N2CCOCC2)cc1)n1nc(-c2cccn(Cc3ccoc3)c2=O)cc1NCc1ccc(Cl)s1 [Cmpd 210, 3-(5-[(5-chlorothiophen-2-yl)methyl]amino-1-[4-(morpholin-4-yl)phenyl]carbonyl-1H-pyrazol-3-yl)-1-(furan-3-ylmethyl)-1,2-dihydropyridin-2-one]	4.00 to 5.00	> 7.00
O=C(c1ccc(N2CCOCC2)cc1)n1nc(-c2cccn(Cc3ccncc3)c2=O)cc1NCc1ccc(Cl)s1 [Cmpd 214, 3-(5-[(5-chlorothiophen-2-yl)methyl]amino-1-[4-(morpholin-4-yl)phenyl]carbonyl-1H-pyrazol-3-yl)-1-(pyridin-4-ylmethyl)-1,2-dihydropyridin-2-one]	6.00 to 7.00	> 7.00
